Several values for one entry are separate records, joined by “and”; a condition that tells them apart may be missing. Equal values may be shown once. Entries after “also recorded” stand apart in the source; their conditions may differ. Read-outs that look alike come from different tables or passages of the source.
Columns and labels:
SARS-CoV-2 spike RNA = assay: microbe, parasite or virus in culture; assay type: cell-based; conditions: Vero E6
Vero E6 cells = assay: Cell number of Vero E6 cells treated for 24 h; assay type: cell-based, African green monkey; conditions: Vero E6, 24 h
Protocol: FIG. 32A and FIG. 32B. […] A-B, Measurement of authentic SARS-CoV-2 infection and cell number in Vero E6 cells treated with (A) halofuginone (HF) or (B) the 2R,3S-(+) enantiomer for 24 h. Data shown as mean±S.D.

[1] = system: recombinant SARS-CoV-2 spike RBD protein binding to Caco-2 cells
[2] = system: core HSPGs in Hep3B cells; assay: HSPG core proteins by SDS-PAGE with mAb 3G10 in Hep3B cells; assay type: cell-based, human
[3] = mice, cited from earlier work
[4] = system: Hep3B cells transcriptome; assay: RNA-Seq of Hep3B cells treated with halofuginone; assay type: cell-based, human
[5] = system: recombinant SARS-CoV-2 spike RBD protein binding to Calu-3 cells
DENV-2 (Dengue) = assay: DENV-2 antiviral immunofluorescence assay in Huh7 cells; assay type: cell-based; conditions: Dengue virus, DENV2, Huh-7, read-out: EC50 DENV-2
Protocol: (§1) Experimental Procedure. The antiviral activity of 8 dilutions of each compound was explored by adding the drug to the assay cells 2 h after infection with the different viruses. Virus and compounds were left on the cells for the entire duration of the experiment (28 h for Zika virus and 24 h for all other viruses). The cytotoxicity of the same range of concentrations of compounds was determined by LDH release assay in the same cell lines.
(§2) Cell plating. Cells were detached and counted following SOP-RA 003 and SOP-RA 004. Count was recorded in the Cell Count Logbook, Volume 1. For each virus four plates were seeded, two for the antiviral assay and two for the cytotoxicity assay. Cells were seeded in 100 μl/well of complete media at the following densities: • Huh7: 8,000 cells/well (Dengue) • SH-SY5Y: 10,000 cells/wells (Zika) • HeLa Tzmbl: 8,000 cells/well (HIV)
(§3) Compounds dilutions. The 22.1 mM stocks were further diluted to 1 mM in DMSO by adding 211 μl of DMSO to 10 μl of compound. Three serial dilutions were prepared in different media for different viruses/cells. For each dilution, drugs were prepared at twice the final concentration in 50 μl volume, because they are diluted to the final concentration by an equal volume of virus or media.
(§4) Infection. Cells were infected in 50 μl of supplemented media/well at the following multiplicity of infection (MOI): • DENV-2, MOI 1 • ZIKV, MOI 5 • HIV, MOI 0.5
(§5) After removing culture media from cells, 50 μl of virus dilution were added to all wells except Column 11 (uninfected control), where the same volume of supplemented media was added. […]
(§6) Infectivity readout. […] The primary antibodies were detected with an Alexa-488 conjugate secondary antibody (Life Technologies, A11001), and nuclei were stained with Hoechst. Images were acquired on a CellInsight CX5 high content platform (Thermo Scientific) using a 4× objective, and percentage infection calculated using CellInsight CX5 software (infected cells/total cells×100).
(§7) Determination of % Inhibition—IF assay. Normalized percentages of inhibition were calculated using the following formula: […]

authentic SARS-CoV-2 = assay type: cell-based
HIV-1 = HIV-1 antiviral immunofluorescence assay in HeLa Tzmbl cells; assay type: cell-based; conditions: Human immunodeficiency virus 1, read-out: EC50 HIV-1
Protocol: as §1, §2, §3, §4, §5, §6, §7

[6] = system: cell surface heparan sulfate of Hep3B cells; assay: Heparan sulfate presentation by anti-HS mAb 10E4 staining of Hep3B cells; assay type: cell-based, human
[7] = system: authentic SARS-COV-2 virus; assay: SARS-CoV-2 infected golden hamsters, intraperitoneal halofuginone; assay type: in vivo; conditions: for viral titer (TCID50 from nasal washes): 200 μg/kg intraperitoneally daily
Protocol: FIG. 35A, FIG. 35B, and FIG. 35C.
Six golden hamsters were dosed at 200 μg/kg with halofuginone starting at day −1, infected at day 0 with authentic SARS-COV-2 virus, and every day for five more days they received 200 μg/kg of halofuginone (FIG. 35A). Dosing was done intraperitoneally. A control group (n=6) was administered PBS. On day 3, half of the animals (n=3) in each group was sacrificed, and at day 5 the remaining animals (n=3) were sacrificed. TCID50 values as a measure of SARS-CoV-2 infectivity were measured from nasal washes at day 3 and day 5; the values were determined by viral cytopathic effect.

Structure (SMILES): O=C(CC1NCCCC1O)Cn1cnc2cc(Br)c(Cl)cc2c1=O (racemic) [halofuginone]
- IC50 (SARS-CoV-2 spike RNA; Severe acute respiratory syndrome coronavirus 2, Vero C1008, read-out: IC50 of SARS-CoV-2 spike intracellular mRNA levels): 34.9 nM
- reduction of SARS-CoV-2 spike intracellular mRNA levels (SARS-CoV-2 spike RNA): more than 20,000 fold
- cell proliferation (cell number) (Vero E6 cells): inhibit SARS-CoV-2 infection and cell proliferation
- effect on spike (RBD) protein binding [1]: dose-dependently inhibited spike protein binding
- effect on spike (RBD) protein binding ([1]; listed as Halofuginone): reduced spike RBD protein binding
- expression of core HSPGs (mAb 3G10) [2]: reduced the expression of core HSPGs in a dose-dependent manner
- exposure (area under the curve) in the lung compared to plasma ([3]; single intravenous injection): more than 87 fold
- tissue distribution [3]: highest tissue concentrations in the lung and kidney
- ATF4-mediated integrated stress response (ISR) ([4]; Hep3B RNA-Seq): induced a general ATF4-mediated ISR
- expression of host factors exploited by SARS-CoV-2, TMPRSS2 and ACE2 ([4]; Hep3B RNA-Seq): No significant difference in expression
- mRNA of HSPGs GPC2 (GPC1) and SDC1 with HS biosynthetic enzymes B3GAT3 and EXTL3 ([4]; Hep3B RNA-Seq): significantly downregulated
- unfolded protein-induced ER stress response ([4]; Hep3B RNA-Seq): did not activate the unfolded protein-induced ER stress response
- differentially expressed genes ([4]; Hep3B, 200 or 500 nM, 6 h and 18 h): ~2700 genes
- effect on spike (RBD) protein binding [5]: dose-dependently inhibited spike protein binding
- reduction in spike RBD binding [5]: 5 fold
- effect on spike (RBD) protein binding ([5]; listed as Halofuginone): reduced spike RBD protein binding
- EC50 (DENV-2 (Dengue)): 35.4 nM
- decrease of viral RNA levels (authentic SARS-CoV-2): 10- to 100 fold
- intracellular viral RNA (authentic SARS-CoV-2): did not change
- reduction of SARS-CoV-2 infectivity (authentic SARS-CoV-2): 3 Log and 4 Log
- reduction of secreted infectious virions (authentic SARS-CoV-2): ~1000 fold
- virus in plaque assays (authentic SARS-CoV-2; HuH 7.5, doses above 100 nM): No virus was detected in plaque assays
- productive infection (authentic SARS-CoV-2; Huh 7.5, 100 nM): prevented productive infection
- reduction of SARS-CoV-2 infection (viral titers) (authentic SARS-CoV-2; Huh 7.5, 100 nM, pretreatment alone): ~30 fold
- EC50 (HIV-1): 23.6 nM
- effect on heparan sulfate presentation (10E4 binding) ([6]; listed as Halofuginone): dose-dependently reduced 10E4 binding; also recorded: dose-dependently reduced the presence of cell surface heparan sulfate
- effect on heparan sulfate presentation (10E4 binding) ([6]; listed as halofuginone (MAZ1392)): reduced heparan sulfate presentation
- viral titer (TCID50 from nasal washes) ([7]; day 3 and day 5): significantly reduced viral titer by day 5 post infection
- viral titer (TCID50 from nasal washes) ([7]; day 3 and day 5, listed as Halofuginone): potent anti-viral efficacy
- body weight ([7]; 200 μg/kg intraperitoneally, day -1 to day 5): no deleterious effect on body weight

From US20230321101A1, “METHODS AND USES OF HALOFUGINONE” (The Regents of the University of California, priority 2020, published 2023)
